Values quoted from earlier work, collected in patent publication US6689399B1, “Transdermal delivery of an anti-inflammatory composition” (priority 2000, dated 2004).

Key:
[1] = four trials, 0.025% capsaicin cream four times daily for 6-8 weeks; placebo 42%
[2] = single trial, 0.075% capsaicin cream four times daily for six weeks; 5/13; placebo 10%
[3] = single trial, 0.075% capsaicin cream three or four times daily for three weeks; 4/16; placebo 6%
[4] = three trials, capsaicin cream (two 0.025%, one 0.075%) four times daily for four weeks; placebo 16%
[5] = four trials, 0.075% capsaicin cream four times daily for 4-8 weeks; placebo 49%

COc1cc(CNC(=O)CCCC/C=C/C(C)C)ccc1O [capsaicin, trans-8-methyl-N-vanillyl-6-nonenamide]
patients responding to capsaicin, psoriasis [1]: 68% | patients reporting pain relief, postmastectomy pain [2]: 38% | patients reporting pain relief, postherpetic neuralgia [3]: 25% | patients responding to capsaicin, osteoarthritis [4]: 45% | patients responding to capsaicin, diabetic neuropathy [5]: 73%
